# From patent EP0406628A1, “Monoclonal antibody against endothelin, hybridoma capable of producing the same and radioimmunoassay for endothelin by using the same” (SHIONOGI & CO., LTD., priority 1989, dated 1991)
# Bridge positions count the residues as written; N and C are the ends. Ends that are not written are not given here.
# Tested on: isolated rat aortic strips
# Test: Neutralization experiment: contractile response of isolated rat aortic strips to ET-1
# Conditions: synthetic ET-1 alone
# Method: Contractile responses of rat aortic strips were performed as previously reported (Toda, S., Nakajima, S., Miyazaki, M., Ueda, M.: Vasodilation induced by pinacidil in dogs _ comparison with hydralizine and nifedipine. J. Cardiovasc. Pharmacol. 1985;7:1118-1126). Aortic strips were incubated in an organ bath perfused at 37°C with balanced salt solution containing 139.7 mEq Na⁺, 5.4 mEq K⁺, 2.2 mEq Ca²⁺, 1.0 mEq Mg²⁺, 131.5 mEq Cl⁻ and 20 mEq HCO₃⁻. Purified monoclonal antibody (0.05 µg/ml - 5 µg/ml) was added 3 min before the ET-1 administration.
substance,measurement,value
"ET-1: endothelin-1, purchased from Peptide Institute Inc.; original form isolated from culture medium of porcine aortic endothelial cells (CSCSSLMDKECVYFCHLDIIW; disulfide 1-15, 3-11; ends not checked; UniProt P05305 53-73, looked up)",vasoconstriction,induced a vasoconstriction in isolated rat aortic strips in a dose-dependent manner
